The assay relates to compound 48/80-induced lethality. As to the kind of experiment: Protection of rats from compound 48/80-induced lethality. It is filed as in vivo, rats of an inbred Wistar strain. The settings on record: Rattus norvegicus, 4 h, read-out: Compound 48/80 lethality test in rats ED50, s.c. or p.o. 1 h before compound 48/80 0.5 mg/kg i.v.; protection of 50% of animals, survival after 4 hours. How it is done: Protection of rats from compound 48/80-induced lethality
The protection from compound 48/80-induced lethal circulatory collapse appears to be a simple way of evaluating quantitatively the antihistaminic activity of test compounds. Male rats of an inbred Wistar strain, weighing 240-260 g were used in the experiment. After overnight starvation the rats were transferred to conditioned laboratories (temp.=21±1° C., relative humidity=65+5%). The rats were treated subcutaneously or orally with a test compound or with the solvent (NaCl solution, 0.9%). […] Survival after 4 hours is therefore considered to be a safe criterion of a protective effect of drug administration. The ED50 -values of the compounds of formula (I) are listed in the first column of tables 1 to 4. Said ED50 -values are the values in mg/kg body weight at which the tested compounds protect 50% of the tested animals against compound 48/80-induced lethality. The compounds of formula (I) and the pharmaceutically acceptable acid addition salts thereof are also potent serotonin-antagonists. The potency of the subject compounds as serotonin-antagonists is clearly evidenced by the results obtained in the following tests wherein the antagonistic activity of the subject compounds on the effect of serotonin is examined.
As to `Cc1nc2n(c(=O)c1CCN1CCC(Cc3nc4cccnc4n3Cc3ccco3)CC1)CCCS2` [Compound 178], the ED50 worked out at 0.02 mg/kg.

Regarding `Cn1c(=O)n(CCN2CCC(Cc3nc4ccccc4n3Cc3ccco3)CC2)c(=O)c2ccccc21` [Compound 221], the ED50 came to 0.04 mg/kg.

`Cc1nc2ccccn2c(=O)c1CCN1CCC(Cc2nc3ccccc3n2Cc2cccs2)CC1` [Compound 257]: the ED50 came out at 0.02 mg/kg.

As to `COc1ccc(CCN2CCC(Cc3nc4cnccc4n3Cc3ccc(F)cc3)CC2)cc1` [Compound 202, 1-[(4-fluorophenyl)methyl]-2-[[1-[2-(4-methoxyphenyl)ethyl]-4-piperidinyl]-methyl]-1H-imidazo-[4,5-c]pyridine], the ED50 worked out at 0.08 mg/kg.

For `CCn1nnn(CCN2CCC(Cc3nc4ccccc4n3Cc3ccc(F)cc3)CC2)c1=O` [Compound 123], the ED50 was 0.01 mg/kg.

As for `OCCN1CCC(Cc2nc3ccccc3n2Cc2ccccc2)CC1` [Compound 112], the ED50 turned out to be 0.08 mg/kg.

Consider `O=C(NCCN1CCC(Cc2nc3ccccc3n2Cc2ccc(F)cc2)CC1)c1ccoc1` [Compound 434, N-[2-[4-[[1-[(4-fluorophenyl)methyl]-1H-benzimidazol-2-yl]methyl]-1-piperidinyl]ethyl]-3-furancarboxamide], for which the ED50 amounted to 0.0025 mg/kg.

As for `Cc1ccc(Cn2c(CC3CCN(CCO)CC3)nc3ccccc32)cc1` [Compound 113, 4-[[1-[(4-methylphenyl)methyl]-1H-benzimidazol-2-yl]methyl]-1-piperidineethanol], the ED50 worked out at 0.08 mg/kg.

As for `Fc1ccc(Cn2c(CC3CCN(CCNc4nc5ccccc5[nH]4)CC3)nc3ccccc32)cc1` [Compound 328, N-[2-[4-[[1-[(4-fluorophenyl)methyl]-1H-benzimidazol-2-yl]methyl]-1-piperidinyl]ethyl]1H-benzimidazol-2-amine], the ED50 amounted to 0.16 mg/kg.

Turning to `Cc1nc2n(c(=O)c1CCN1CCC(Cc3nc4ccccc4n3Cc3ccco3)CC1)CCS2` [Compound 163], the ED50 is 0.02 mg/kg.

Take `COc1ccc(Cn2c(CC3CCN(CCNc4nccs4)CC3)nc3cccnc32)cc1` [Compound 365]: the ED50 worked out at 0.08 mg/kg.

For `c1cnc(NCCN2CCC(Cc3nc4cccnc4n3Cc3ccco3)CC2)nc1` [Compound 339], the ED50 was 0.01 mg/kg.

Take `c1coc(Cn2c(CC3CCN(CCNc4nccs4)CC3)nc3cccnc32)c1` [Compound 352, 4-[[3-(2-furanylmethyl)-3H-imidazo[4,5-b]pyridin-2-yl]methyl]-N-(2-thiazolyl)-1-piperidineethanamine]: the ED50 worked out at 0.01 mg/kg.

Turning to `CN1CCC(Cc2nc3ccccc3n2Cc2ccco2)CC1` [Compound 86], the ED50 was 0.01 mg/kg.

For the compound `Cc1nc2n(c(=O)c1CCN1CCC(Cc3nc4ccccc4n3Cc3ccco3)CC1)CCCS2` [Compound 166], the ED50 amounted to 0.04 mg/kg.

For `c1ccc(Cn2c(CC3CCN(CCNc4ncccn4)CC3)nc3ccccc32)cc1` [Compound 344], the ED50 worked out at 0.02 mg/kg.

Take `O=C(NCCN1CCC(Cc2nc3ccccc3n2Cc2ccc(F)cc2)CC1)c1cc2ccccc2oc1=O` [Compound 445, N-[2-[4-[[1-[(4-fluorophenyl)methyl]-1H-benzimidazol-2-yl]methyl]-1-piperidinyl]ethyl]-2-oxo-2H-1-benzopyran-3-carboxamide]: the ED50 came out at 0.16 mg/kg.

Consider `O=C(NCCN1CCC(Cc2nc3ccccc3n2Cc2ccc(F)cc2)CC1)c1cc(O)c2ccccc2n1` [Compound 444, N-[2-[4-[[1-[(4-fluorophenyl)methyl]-1H-benzimidazol-2-yl]methyl]-1-piperidinyl]ethyl]-4-hydroxy-2-quinolinecarboxamide], for which the ED50 was determined as 0.16 mg/kg.

With `CCn1nnnc1SCCN1CCC(Cc2nc3ccccc3n2Cc2ccc(F)cc2)CC1` [Compound 181], the ED50 stood at 0.04 mg/kg.

For the compound `Fc1ccc(Cn2c(CC3CCN(CCNc4ncnc5[nH]cnc45)CC3)nc3ccccc32)cc1` [Compound 370], the ED50 turned out to be 0.02 mg/kg.

Turning to `Fc1ccc(Cn2c(OC3CCNCC3)nc3ccccc32)cc1` [Compound 66, 1-[(4-fluorophenyl)methyl]-2-(4-piperidinyloxy)-1H-benzimidazole], the ED50 worked out at 0.02 mg/kg.

Consider `Cc1ccc(Cn2c(CC3CCNCC3)nc3ccccc32)cc1` [Compound 42, 1-[(4-methylphenyl)methyl]-2-(4-piperidinylmethyl)-1H-benzimidazole], for which the ED50 is 0.02 mg/kg.

As to `C[C@@H]1CN(CCNc2ncccn2)CC[C@@H]1Oc1nc2ccccc2n1Cc1ccc(F)cc1` (relative stereo) [Compound 349, cis-N-[2-[4-[[1-[(4-fluorophenyl)methyl]-1H-benzimidazol-2-yl]oxy]-3-methyl-1-piperidinyl]ethyl]-2-pyrimidinamine], the ED50 turned out to be 0.08 mg/kg.

For the compound `C=CCN1CCC(Cc2nc3cccnc3n2Cc2ccc(F)cc2)CC1` [Compound 142, 3-[(4-fluorophenyl)methyl]-2-[[1-(2-propenyl)-4-piperidinyl]methyl]-3H-imidazo-[4,5-b]pyridine], the ED50 stood at 0.02 mg/kg.

In the case of `CN(CCN1CCC(Cc2nc3ccccc3n2Cc2ccc(F)cc2)CC1)Cc1ccccc1` [Compound 512], the ED50 worked out at 0.08 mg/kg.

For `O=c1oc2ccccc2cc1CCN1CCC(Cc2nc3cccnc3n2Cc2ccco2)CC1` [Compound 174], the ED50 came out at 0.01 mg/kg.

For `Fc1ccc(Cn2c(CC3CCN(CCNc4cccnn4)CC3)nc3ccccc32)cc1` [Compound 500, N-[2-[4-[[1-[(4-fluorophenyl)methyl]-1H-benzimidazol-2-yl]methyl]-1-piperidinyl]ethyl]-3-pyridazinamine], the ED50 was 0.01 mg/kg.

As to `COc1ccc(CCN2CCC(Cc3nc4ccncc4n3Cc3ccc(F)cc3)CC2)cc1` [Compound 204, 3-[(4-fluorophenyl)methyl]-2-[[1-[2-(4-methoxyphenyl)ethyl]-4-piperidinyl]methyl]-3H-imidazo-[4,5-c]pyridine], the ED50 worked out at 0.08 mg/kg.

As for `O=c1[nH]c2ccccc2c(=O)n1CCCN1CCC(Cc2nc3cccnc3n2Cc2ccco2)CC1` [Compound 169], the ED50 stood at 0.02 mg/kg.

With `CNCCN1CCC(Cc2nc3ccccc3n2Cc2ccc(F)cc2)CC1` [Compound 513, 4[[1-[(4-fluorophenyl)methyl]-1H-benzimidazol-2-yl]methyl]-N-methyl-1-piperidineethanamine], the ED50 was 0.08 mg/kg.

With `OCCN1CCC(Oc2nc3ccccc3n2Cc2ccc(F)cc2)CC1` [Compound 105, 4-[[1-[(4-fluorophenyl)methyl]-1H-benzimidazol-2-yl]oxy]-1-piperidineethanol], the ED50 is 0.01 mg/kg.

Regarding `CNc1ccccc1C(=O)NCCN1CCC(Cc2nc3cccnc3n2Cc2ccc(F)cc2)CC1` [Compound 470], the ED50 was 0.04 mg/kg.

Turning to `COc1ccc(CCN2CCC(Cc3nc4ncccc4n3Cc3ccc(F)cc3)CC2)cc1` [Compound 203, 1-[(4-fluorophenyl)methyl]-2-[[1-[2-(4-methoxyphenyl)ethyl]-4-piperidinyl]methyl]-1H-imidazo-[4,5-b]pyridine], the ED50 was found to be 0.04 mg/kg.

As to `COc1ccc(CCN2CCC(Cc3nc4ccccc4n3Cc3ccc(C)o3)CC2)cc1` [Compound 266], the ED50 came to 0.04 mg/kg.

As to `Fc1ccc(Cn2c(CC3CCN(CCNc4cnccn4)CC3)nc3ccncc32)cc1` [Compound 373, N-[2-[4-[[3-[(4-fluorophenyl)methyl]-3H-imidazo[4,5-c]pyridin-2-yl]methyl]-1-piperidinyl]ethyl]-2-pyrazinamine], the ED50 is 0.08 mg/kg.

For `CN1CCC(Sc2nc3ccccc3n2Cc2ccc(F)cc2)CC1` [Compound 96], the ED50 is 0.04 mg/kg.

Take `c1ccc(Cn2c(CC3CCN(CCNc4nccs4)CC3)nc3ccccc32)cc1` [Compound 363]: the ED50 turned out to be 0.04 mg/kg.

Consider `O=c1oc2ccccc2cc1CCN1CCC(Cc2nc3ccccc3n2Cc2cccs2)CC1` [Compound 259], for which the ED50 turned out to be 0.08 mg/kg.

Turning to `Cc1nc2ccccn2c(=O)c1CCN1CCC(Cc2nc3cccnc3n2Cc2ccccn2)CC1` [Compound 256], the ED50 stood at 0.08 mg/kg.

`Fc1ccc(Cn2c(CC3CCN(Cc4cn5cccnc5n4)CC3)nc3ccccc32)cc1` [Compound 183]: the ED50 turned out to be 0.01 mg/kg.

For the compound `Cc1nc2sccn2c(=O)c1CCN1CCC(Cc2nc3cccnc3n2Cc2ccco2)CC1` [Compound 173], the ED50 turned out to be 0.01 mg/kg.

As for `Cn1cnc2c(NCCN3CCC(Cc4nc5ccccc5n4Cc4ccc(F)cc4)CC3)ncnc21` [Compound 369], the ED50 was 0.04 mg/kg.

With `O=c1[nH]c2ccccc2n1CCCN1CCC(Cc2nc3ccccc3n2Cc2ccco2)CC1` [Compound 139, 1-[3-[4-[[1-(2-furanylmethyl)-1H-benzimidazol-2-yl]methyl]-1-piperidinyl]propyl]-1,3-dihydro-2H-benzimidazol-2-one], the ED50 amounted to 0.08 mg/kg.

Consider `CCOC(=O)NCCN1CCC(Cc2nc3ccccc3n2Cc2cscn2)CC1` [Compound 248], for which the ED50 came out at 0.04 mg/kg.

For `Cc1nc2ccccn2c(=O)c1CCN1CCC(Cc2nc3cnccc3n2Cc2ccc(F)cc2)CC1` [Compound 274], the ED50 was found to be 0.16 mg/kg.

For the compound `Fc1ccc(Cn2c(CC3CCN(CCNc4ccc(Cl)nn4)CC3)nc3ccccc32)cc1` [Compound 378, 6-chloro-N-[2-[4-[[1-[(4-fluorophenyl)methyl]-1H-benzimidazol-2-yl]methyl]-1-piperidinyl]ethyl]-3-pyridazinamine], the ED50 worked out at 0.04 mg/kg.

Values taken from patent publication US4839374A, “4-((Bicyclic heterocyclyl)-methyl and -hetero)-piperidines” (Janssen Pharmaceutica, N.V., priority 1987, dated 1989).
